Assay results taken from ChEMBL document CHEMBL4049383, “Emergence of Small-Molecule Non-RGD-Mimetic Inhibitors for RGD Integrins” (J Med Chem, 2017).

Legend:
[1] = Stability of the compound in human microsomes; format: ADME, Microsome; conditions: read-out: Stability
[2] = molecular target: Integrin alpha-IIb/beta-3 (Homo sapiens, UniProt P05106+P08514)
Integrin alpha-IIb/beta-3, sequence (P05106 27-788 limits assumed): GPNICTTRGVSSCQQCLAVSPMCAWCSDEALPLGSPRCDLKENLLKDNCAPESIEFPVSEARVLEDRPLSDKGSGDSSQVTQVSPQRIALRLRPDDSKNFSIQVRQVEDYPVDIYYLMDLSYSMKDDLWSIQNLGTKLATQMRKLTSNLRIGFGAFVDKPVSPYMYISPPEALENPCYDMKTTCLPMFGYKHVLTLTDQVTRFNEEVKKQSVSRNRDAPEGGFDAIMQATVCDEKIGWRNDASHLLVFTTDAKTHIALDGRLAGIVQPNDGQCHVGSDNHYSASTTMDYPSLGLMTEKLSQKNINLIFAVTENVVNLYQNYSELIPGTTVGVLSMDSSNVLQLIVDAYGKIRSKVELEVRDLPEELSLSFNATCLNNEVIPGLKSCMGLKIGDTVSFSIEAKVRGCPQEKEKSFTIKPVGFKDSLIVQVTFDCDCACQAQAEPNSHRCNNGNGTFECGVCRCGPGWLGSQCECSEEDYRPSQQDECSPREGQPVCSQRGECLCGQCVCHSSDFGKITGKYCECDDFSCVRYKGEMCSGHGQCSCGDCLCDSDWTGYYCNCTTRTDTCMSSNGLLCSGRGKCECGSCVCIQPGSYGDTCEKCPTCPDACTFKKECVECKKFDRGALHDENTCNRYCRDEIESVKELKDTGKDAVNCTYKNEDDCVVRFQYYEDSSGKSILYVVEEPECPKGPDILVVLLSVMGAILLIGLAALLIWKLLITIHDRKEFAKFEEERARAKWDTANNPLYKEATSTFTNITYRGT
Integrin alpha-IIb/beta-3, sequence (P08514 32-887 limits assumed): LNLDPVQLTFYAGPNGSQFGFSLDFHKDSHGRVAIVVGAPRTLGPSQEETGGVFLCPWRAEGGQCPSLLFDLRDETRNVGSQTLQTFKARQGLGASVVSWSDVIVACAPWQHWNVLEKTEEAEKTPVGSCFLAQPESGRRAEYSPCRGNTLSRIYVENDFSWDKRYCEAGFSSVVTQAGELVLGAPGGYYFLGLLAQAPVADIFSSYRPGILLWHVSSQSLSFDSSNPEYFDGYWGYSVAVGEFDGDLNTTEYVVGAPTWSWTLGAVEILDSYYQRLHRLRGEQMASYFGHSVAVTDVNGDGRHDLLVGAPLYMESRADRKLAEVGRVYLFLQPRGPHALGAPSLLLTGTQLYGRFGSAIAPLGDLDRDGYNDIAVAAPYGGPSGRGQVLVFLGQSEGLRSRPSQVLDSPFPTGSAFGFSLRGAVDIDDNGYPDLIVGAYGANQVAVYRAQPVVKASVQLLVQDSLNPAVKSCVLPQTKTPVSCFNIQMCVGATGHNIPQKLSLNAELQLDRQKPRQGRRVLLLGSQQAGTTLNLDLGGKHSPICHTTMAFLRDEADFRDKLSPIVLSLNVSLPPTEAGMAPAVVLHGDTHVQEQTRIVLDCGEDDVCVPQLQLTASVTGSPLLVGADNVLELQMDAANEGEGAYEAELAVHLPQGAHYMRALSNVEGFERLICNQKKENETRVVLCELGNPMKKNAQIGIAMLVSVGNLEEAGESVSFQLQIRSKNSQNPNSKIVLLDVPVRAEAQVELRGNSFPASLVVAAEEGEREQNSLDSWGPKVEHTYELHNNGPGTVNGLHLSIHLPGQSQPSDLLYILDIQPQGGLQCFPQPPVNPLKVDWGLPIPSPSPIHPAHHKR
Integrin alpha-IIb/beta-3, sequence (P08514 891-1039 limits assumed): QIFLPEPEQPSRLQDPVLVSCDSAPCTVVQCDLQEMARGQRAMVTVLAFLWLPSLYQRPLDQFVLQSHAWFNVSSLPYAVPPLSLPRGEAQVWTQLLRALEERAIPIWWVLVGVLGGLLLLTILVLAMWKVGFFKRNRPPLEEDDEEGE
Description: Displacement of [3H]UR-3189 from integrin alpha2b beta3 receptor in resting human platelet

| microsomal CLint [1] [µL/min/mg] | Ki [2] [nM] | Compound |
| --- | --- | --- |
| 23.2 |  | NCC(=O)Nc1cncc(-c2nn3c(=O)cc(N4CCNCC4)nc3s2)c1 [ZALUNFIBAN] |
|  | < 1 | [H]/N=C(\N)c1ccc(C(=O)N[C@@H](Cc2ccc([N+](=O)[O-])cc2)C(=O)N2CCc3nn(CC(=O)O)cc3C2)cc1 |
